Experimental data taken from PubChem BioAssay AID179 (DTP/NCI, 2004).
Where “and” joins values, the source holds several entries; their conditions need not be identical. Equal values may be shown once. Calls of active or inactive are those of the source.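 Rule for the calls: active = compounds giving half or more protection of infected cells from virus-caused growth loss, again on retest; inactive = the rest.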

Tested on: CEM cells HIV-1 protection, formazan growth assay
Assay: NCI AIDS Antiviral Assay
Conditions: for IC50: measured here: growth of uninfected CEM cells
How it was run: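 Screen of anti-HIV-1 activity in human CEM cells using a formazan-based growth measurement at five drug concentrations. Hits with 50% or greater protection were repeated, and confirmation required reproducible complete protection.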

Compound	EC50 [µM]	IC50	outcome
Cc1ccc(S(=O)(=O)/N=S(\C)c2ccc(Cl)cc2)cc1 (stereo not given)	> 759	178 µM	–
CCC(=O)OC1CC2=CC(=O)CCC2(C)C2CCC3(C)C(OC(=O)CC)CCC3C12 (stereo not given)	> 200	> 200 µM	–
Nc1ccn(C2CCC(CO)O2)c(=O)n1 (stereo not given)	4.68	13.5 µM	–
CCCCn1/c(=N/C(=S)N(C)C)ss/c1=N\C(=S)N(C)C	–	–	inactive
O=C(CC(O)(C(F)(F)Cl)C(F)(F)Cl)CC(O)(C(F)(F)Cl)C(F)(F)Cl	–	–	inactive
COc1cc(Oc2c(O)c(C)c(OC)c(C(C)=O)c2O)c(C(C)=O)c(O)c1C	> 93.3	> 93.3 µM	–
CCOC(=O)c1c(-c2ccc(OC)c(O)c2)c(C#N)c(=S)n(C2OC(COC(C)=O)C(OC(C)=O)C(OC(C)=O)C2OC(C)=O)c1-c1ccccc1 (stereo not given)	> 200	102 µM and 56.2 µM	–
CC(C)(C)Cc1cc(O)ccc1O	> 6.03	3.39 µM	–
CCCCCCCCCCCCNC(=O)c1ccccc1[Se][Se]c1ccccc1C(=O)NCCCCCCCCCCCC	> 3.55	> 3.55 µM	–
O=C(c1ccccc1)N1C(=S)N(c2ccccn2)C(=Nc2ccccc2)C1=Nc1ccccc1	> 200	8.71 µM	–
CC(C)(C)CC(C)(C)c1ccc(OCCOCC[N+](C)(C)Cc2ccccc2)cc1	–	–	inactive
CCCC(C)SP(=S)(SC(C)CCC)SC(C)CCC (stereo not given)	> 200	> 200 µM	–
O[C@]12CCCC[C@H]1CCC2	–	–	inactive
C=C=C(CCC(=O)c1ccccc1)S(=O)(=O)c1ccccc1	> 200	11 µM	–
C=C(CC/C=C\CO)[Si](C)(C)C	> 141	> 141 µM	–
Oc1ccc2ccccc2c1C1=NNC(c2ccc(Cl)cc2)C1 (stereo not given)	> 200	40.7 µM	–
Cc1cn(C2CC3C(COC(c4ccccc4)N3O)O2)c(=O)[nH]c1=O (stereo not given)	> 200	34.7 µM	–
CCOC(=O)C[N+]1(C)CCC(O)CC1 (stereo not given)	> 200	> 200 µM	–
CNC(=S)NNC1=NCCCN1	> 200	> 200 µM	–
C=C(C)P(=O)(OC(C)CCl)OC(C)CCl (stereo not given)	> 200	> 200 µM	–
O=C1CSC(=S)N1c1ccc2c(c1)OCO2	> 200	79.4 µM	–
CCN(CC)CCN.O=c1cccccc1[O-].O=c1cccccc1[O-].[Co+3].[O-][Cl+3]([O-])([O-])[O-]	> 200	2.24 µM	–

Compound	EC50 [µM]	IC50	outcome
CN1C(=O)N(C)C2(CCN(CCCCCCF)CC2)C1=O	> 200	> 200 µM	–
NNC(=O)N/N=C1\CN(c2ccc(Cl)cc2Cl)C(=O)C(=O)C1c1nc2ccccc2o1 (stereo not given)	–	–	inactive
CN(C)CC1CCCC/C1=N/OC(=O)c1ccc(Cl)c(Cl)c1 (stereo not given)	–	–	inactive
C[Si](C)(C)C#CC(O)CS(=O)c1ccccc1 (stereo not given)	> 200	105 µM	–
O=c1c2c3ccccc3[nH]c2c2cccc3c2n1CCC3	> 200	61.7 µM	–
COC(=O)C(NC(=O)c1ccccc1)C(c1ccc(Cl)cc1)P(=O)(OC)OC (stereo not given)	> 309	> 309 µM	–
COC(=O)c1cc(C(=CCCCC=O)c2cc(Cl)c(OC)c(C(=O)OC)c2)cc(Cl)c1OC	> 200	11.5 µM	–
NNC(=O)CNC(=O)CSc1nnc(COc2ccc(Cl)cc2)n1-c1ccccc1	> 200	56.2 µM	–
C1CCSCCCCSCCCCSCCCCSC1	> 102	> 102 µM	–
O=C(c1cccnc1)c1cc(-c2ccccn2)c(=O)n2ccccc12	> 200	> 200 µM	–
ClC1=NN=C(c2c[nH]c3ccccc23)CC1NCc1ccccc1 (stereo not given)	> 200	> 200 µM	–
CCOC(=O)c1cc(C2(O)CCN(CC(C)CC)C2=O)c(-c2cc(C)no2)[nH]1 (stereo not given)	> 200	> 200 µM	–
Nc1ccc2c(c1)C(=O)N1CCC[C@H]1C(=O)N2	> 200	> 200 µM	–
O=C(O)CC(c1ccccc1)C(CC(=O)O)c1ccccc1 (stereo not given)	> 437	> 437 µM	–
COc1ccc2c(c1)C(C)(C)Oc1cc3oc(C(=O)O)cc(=O)c3cc1-2	> 355	> 355 µM	–
Cc1cc(-c2ccc(N=Nc3c(S(=O)(=O)O)cc4cccc(S(=O)(=O)O)c4c3O)c(C)c2)ccc1N=Nc1ccc2c(S(=O)(=O)O)ccc(N)c2c1O	–	–	inactive
CSC1=C(C#N)C(c2ccccc2)CC(=O)N1 (stereo not given)	> 200	> 200 µM	–
N/N=c1\c2ccccc2c2ccc3c4ccccc4/c(=N\N)c3c12	> 11.5	> 11.5 µM	–
COc1cc(C2c3c(ccc4ccccc34)C(=O)C3CCC(=O)N32)cc(OC)c1OC (stereo not given)	> 50.1	18.2 µM	–
Cc1cc2[nH]c3c(C#N)c4c(c(=O)n3c2cc1C)CCCC4	> 200	> 200 µM	–
N#C/C(=C\c1ccc(O)c(O)c1)C(=O)NCCCCCCCCNC(=O)/C(C#N)=C/c1ccc(O)c(O)c1	> 200	13.8 µM	–
COc1ccc(C(=O)/C=C/c2ccc(OCC#N)cc2)cc1	> 200	15.8 µM	–

Compound	EC50 [µM]	IC50	outcome
Nc1ccc(S(=O)(=O)Nc2nc3ccccc3nc2N2CCCCC2)cc1	> 200	72.4 µM	–
C=CC(C)(C)n1cc(C2=C(O)C(=O)C(c3c(CC=C(C)C)[nH]c4ccccc34)=C(O)C2=O)c2ccccc21	> 200	2.57 µM	–
Nc1c2nc(Nc3ccccc3)sc2nc(=S)n1-c1ccc([N+](=O)[O-])cc1	> 50.1	> 50.1 µM	–
Sc1ccccc1N=Cc1ccc(C=Nc2ccccc2S)cc1	> 200	> 200 µM	–
COc1ccccc1NC(=S)N/N=C/c1c(C)n(C)n(-c2ccccc2)c1=O	> 200	64.6 µM	–
Cc1ccc(S(=O)(=O)NC2C(=O)c3ccccc3C(=O)C2n2ccnc2)cc1 (stereo not given)	> 200	87.1 µM	–
C=C(C)c1ccc2c(c1)C(=O)C[C@@H]1[C@](C)(C#N)CCC[C@]21C	> 200	44.7 µM	–
CCN(CC)C(=S)N/N=C(\C)c1cccc(C)n1	> 2	0.0132 µM	–
N#CCCNCCN(CCN(C(=O)Nc1ccccc1)c1ccccc1)C(=O)Nc1ccccc1	> 200	93.3 µM	–
O=c1[nH]cnc2c1nnn2CCCn1nnc2c(=O)[nH]cnc21	> 200	> 200 µM	–
CCOC(=O)c1c(NC(=O)OC)c(C#N)c2n1CCCCC2	> 200	> 200 µM	–
CN1c2ccccc2C(=O)NC12CCN(CCCC(=O)c1ccc(F)cc1)CC2	> 200	> 100 µM	–
NC(=O)CS(=O)(=O)NC(N)=O	> 200	> 200 µM	–
O=[N+]([O-])/C(C(Cl)=C(Cl)Cl)=C(/Sc1ccccc1)N1CCOCC1	> 200	2.63 µM	–
COc1ccccc1/C=C(/C(C)=O)C(=O)c1ccccc1	> 25.7	> 25.7 µM	–
Cc1ccc2c(=O)c3ccccc3sc2c1	> 200	> 200 µM	–
CC(C)(C)OC(=O)N(CCNS(=O)(=O)c1cccc2cnccc12)CCC(=O)ON1C(=O)CCC1=O	> 200	> 200 µM	–
CCCCCc1nnc2n1N=C(c1ccc(Cl)cc1)CS2	> 200	> 200 µM	–
N#CCCN(c1ccc(C=Nc2cccc([N+](=O)[O-])c2)cc1)S(=O)(=O)c1ccccc1	–	–	inactive
CC(C)C1N(N2C(=O)CS(=O)(=O)C2C(C)C)C(=O)CS1(=O)=O (stereo not given)	> 200	> 200 µM	–
